Results: publication PMC5471521, “Novel selective β1-adrenoceptor antagonists for concomitant cardiovascular and respiratory disease” (The FASEB Journal, 2017)

Assays:
human β2-AR = target: T1, human β2-AR (Homo sapiens, UniProt P07550); assay: Antagonism of cimaterol-induced 3H-cAMP accumulation in CHO-β2 cells; format: cell-based; details: cimaterol agonist, mean ± SEM, read-out: Log Kd,β2 (converted)
T1 construct: expressed in transfected cells
Protocol: Confluent cells were examined (24-well plates, 5 h incubation at 37°C) as described in Baker ([45]). Antagonist Kd values were calculated from a rightward shift of the agonist concentration response curve by using the Gaddum equation as previously described ([46]).

[1] = target: T2, native β2-AR in human bronchial smooth muscle cells (Homo sapiens, UniProt P07550); assay: Antagonism of cimaterol-induced 3H-cAMP accumulation in human bronchial smooth muscle cells; format: cell-based; details: cimaterol agonist, mean ± SEM
T2 construct: human bronchial smooth muscle cells (that natively express β2-AR); host or cells: human bronchial smooth muscle cells
Protocol: Human bronchial smooth muscle cells were obtained from Lonza (Basel, Switzerland) and grown in manufacturer media. Rat β-AR binding experiments (DNA from cDNA Resource Centre, Bloomsburg, PA, USA) were conducted by using transiently transfected CHO cells ([44]). […] Antagonist Kd values were calculated from a rightward shift of the agonist concentration response curve by using the Gaddum equation as previously described ([46]).

human β1-AR = target: T3, human β1-AR (Homo sapiens, UniProt P08588); assay: CRE-SPAP reporter gene assay in CHO-β1 cells; format: cell-based; details: agonist mode, n = 5
T3 construct: expressed in transfected cells
Protocol: cAMP response element (CRE)–secreted placental alkaline phosphatase (SPAP) production was measured in confluent cells (96-well plates, 5 h incubation at 37°C) as described in Baker ([46]). This assay is a sensitive measure of both cAMP and ERK1/2 MAPK pathways ([47]).

[2] = Protein binding by ultracentrifugation, human plasma; format: in vitro ADME; details: read-out: fu human plasma
Protocol: Protein binding of 1 µM NDD-713.HCl and -825.HCl in human and rat plasma, as well as human liver microsomes, was assessed by using the ultracentrifugation technique. Frozen human plasma (Australian Red Cross Blood Service, Melbourne, VIC, Australia) and rat plasma (male Sprague-Dawley rats; Charles River, Margate, Kent, United Kingdom) were thawed at 37°C. Human liver microsomes (XenoTech) were suspended in 0.1 M phosphate buffer (pH 7.4) at protein concentrations of 0.4 mg/ml. Samples were collected immediately as stability reference controls. Spiked plasma samples (but not microsome samples) were incubated at 37°C for 1 h. […] NDD-713.HCl and -825.HCl concentrations of noncentrifuged matrix and protein-free supernatant were determined by UPLC-MS relative to calibration standards prepared in the respective matrices. Total concentration (Ctotal) was the average measured concentration in […] samples maintained at 37°C, and unbound concentration (Cunbound) was the average measured concentration in protein-free supernatants from centrifuged samples (n = 3). The compound unbound fraction (fu) was calculated: fu = Cunbound/Ctotal. Compound degradation was assessed by comparing concentrations in noncentrifuged plasma samples that were incubated at 37°C with concentrations measured in the t = 0 noncentrifuged samples. […]

[3] = Metabolic stability, human liver microsomes; format: in vitro ADME; details: in the presence of NAD+, NADPH, or in the absence of cofactors
Protocol: (§1) NDD-713.HCl and -825.HCl were incubated (0.02, 0.1, or 0.5 μM at 37°C, 120 min) with human (XenoTech, Kansas City, KS, USA) or rat liver microsomes (BD Biosciences, Brea, CA, USA) at 0.4 mg/ml protein concentration. Metabolic reaction was initiated by addition of NADPH-regenerating system or NADPH-regenerating system with uridine diphosphate glucuronic acid. Samples were quenched at time points by acetonitrile addition. Control samples, which contained neither NADPH, nor uridine diphosphate glucuronic acid, were monitored for degradation. Compound concentrations were determined by ultraperformance LC-MS (UPLC-MS) relative to calibration standards that were prepared in quenched liver microsomes and fitted to exponential decay functions to determine first-order rate constants (k) for substrate depletion. These were used to calculate in vitro intrinsic clearance (CLint) values: CLint = k/microsomal protein content (0.4 mg protein/ml). Metabolic stability assays that used rat liver cytosol (BD Biosciences), human cryopreserved hepatocytes, or rat hepatocytes were carried out similarly. Average viable cell concentrations were determined by Trypan Blue exclusion methods (in the absence of test compounds). Studies were carried out by CDCO.

[4] = Metabolic stability, rat hepatocytes; format: in vitro ADME
Protocol: as §1

[5] = test system: HR (β1) and HQC (β2) in conscious rats; assay: In vivo β1- vs. β2-selectivity, oral administration, conscious rats (isoprenaline responses); design: species or system rat; details: for Effect on basal and isoprenaline-stimulated HR after oral gavage: lightly sedated rats dosed by oral gavage, measured once fully recovered
Protocol: Adult male Sprague-Dawley rats, weighing 300−400 g, were chronically instrumented with pulsed Doppler flow probes and intravascular catheters for cardiovascular monitoring and drug administration in a 2-stage surgical protocol as described ([51]). Surgery was performed under general anesthesia (fentanyl and medetomidine, 300 μg/kg of each, i.p.), with reversal and postoperative analgesia provided by atipamezole (1 mg/kg, s.c.) and buprenorphine (0.02 mg/kg, s.c.). Experiments were performed with animals that were fully conscious and unrestrained in home cages and given free access to food and water. Cardiovascular variables were recorded by using a customized, computer-based system (Instrument Development Engineering Evaluation, Maastrich Instruments Bv, Maastrich, The Netherlands) with raw data sampled every 2 ms. Hindquarters vascular conductance (HQC) was calculated as Doppler shift (flow)/mean arterial pressure.
Experiments ran over 3 consecutive days. Lightly sedated rats (propofol at 0.1–0.2 ml of 10 mg/ml, i.v.) that were instrumented for cardiovascular monitoring were administered an oral dose of NDD-825.HCl (1 mg/kg on d 1, 3 mg/kg on d 2, 10 mg/kg on d 3; 10 ml/kg in water) by oral gavage. Each day, responses to isoprenaline infusions were monitored before and at 0.5–1.5 and 3–4 h after oral NDD-825.HCl administration.
Isoprenaline responses shown are absolute values for HR and HQC before the first dose of isoprenaline (baseline) and during the third minute of infusion of each dose. Values at baseline and during the highest isoprenaline dose were tested for statistical significance by using a nonparametric ANOVA test with correction for repeat measures [Quade test ([52])]. A value of P < 0.05 was taken as significant.

β1-AR vs. β2-AR = assay: Calculation of selectivity indices (receptor occupancy, PK-pharmacodynamic ternary complex model); details: human, exercise HR vs FEV1, ternary complex model
hERG potassium channel = hERG potassium channel (Homo sapiens, UniProt Q12809); assay: hERG 3H-astemizole radioligand binding; details: 10 µM; concentrations >3000-fold β1-AR affinity
hERG potassium channel, sequence (Q12809 whole entry): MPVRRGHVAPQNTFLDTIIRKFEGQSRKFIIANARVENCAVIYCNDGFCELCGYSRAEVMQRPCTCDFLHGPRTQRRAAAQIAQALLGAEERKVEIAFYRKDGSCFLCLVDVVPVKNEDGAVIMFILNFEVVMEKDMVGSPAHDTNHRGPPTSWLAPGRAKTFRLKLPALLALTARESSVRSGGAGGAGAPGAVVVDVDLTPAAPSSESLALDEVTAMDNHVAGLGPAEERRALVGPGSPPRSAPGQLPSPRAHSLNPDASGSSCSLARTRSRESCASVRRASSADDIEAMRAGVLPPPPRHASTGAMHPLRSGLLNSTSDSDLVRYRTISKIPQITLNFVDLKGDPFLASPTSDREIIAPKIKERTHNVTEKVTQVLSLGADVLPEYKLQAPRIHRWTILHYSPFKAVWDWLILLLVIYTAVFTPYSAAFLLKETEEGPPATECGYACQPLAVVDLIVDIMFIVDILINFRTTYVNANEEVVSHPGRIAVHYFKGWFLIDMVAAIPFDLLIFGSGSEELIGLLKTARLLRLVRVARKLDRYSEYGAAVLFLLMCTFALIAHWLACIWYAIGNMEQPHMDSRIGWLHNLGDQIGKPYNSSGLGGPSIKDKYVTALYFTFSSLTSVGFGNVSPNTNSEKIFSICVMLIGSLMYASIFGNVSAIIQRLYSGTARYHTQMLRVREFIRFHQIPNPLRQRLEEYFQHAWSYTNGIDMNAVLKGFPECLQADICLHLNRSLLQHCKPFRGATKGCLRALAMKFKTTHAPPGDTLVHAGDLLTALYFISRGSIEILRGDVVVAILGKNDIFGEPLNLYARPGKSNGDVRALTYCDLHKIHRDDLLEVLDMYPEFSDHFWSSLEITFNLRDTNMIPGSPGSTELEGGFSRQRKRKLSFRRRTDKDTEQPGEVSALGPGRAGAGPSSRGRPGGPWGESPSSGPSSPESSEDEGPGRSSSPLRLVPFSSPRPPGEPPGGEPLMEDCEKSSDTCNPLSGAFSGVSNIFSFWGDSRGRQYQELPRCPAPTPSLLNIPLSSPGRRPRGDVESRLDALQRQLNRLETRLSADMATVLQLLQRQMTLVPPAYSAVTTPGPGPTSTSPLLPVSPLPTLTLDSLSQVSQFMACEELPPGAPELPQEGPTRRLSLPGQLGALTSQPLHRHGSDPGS

T2 sequence (P07550 whole entry): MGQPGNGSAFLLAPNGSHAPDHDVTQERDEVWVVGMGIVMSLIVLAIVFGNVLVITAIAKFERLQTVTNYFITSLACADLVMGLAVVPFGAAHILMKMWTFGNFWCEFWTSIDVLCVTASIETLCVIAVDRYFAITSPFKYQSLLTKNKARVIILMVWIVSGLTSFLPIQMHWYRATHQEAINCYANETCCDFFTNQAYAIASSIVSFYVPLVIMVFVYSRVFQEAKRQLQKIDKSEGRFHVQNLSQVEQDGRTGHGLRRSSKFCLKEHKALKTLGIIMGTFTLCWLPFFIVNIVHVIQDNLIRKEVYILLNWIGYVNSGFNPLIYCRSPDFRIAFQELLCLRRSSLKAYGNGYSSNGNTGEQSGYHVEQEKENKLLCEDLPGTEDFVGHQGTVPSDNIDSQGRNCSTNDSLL
T1 sequence (P07550 whole entry): as above
T3 sequence (P08588 whole entry): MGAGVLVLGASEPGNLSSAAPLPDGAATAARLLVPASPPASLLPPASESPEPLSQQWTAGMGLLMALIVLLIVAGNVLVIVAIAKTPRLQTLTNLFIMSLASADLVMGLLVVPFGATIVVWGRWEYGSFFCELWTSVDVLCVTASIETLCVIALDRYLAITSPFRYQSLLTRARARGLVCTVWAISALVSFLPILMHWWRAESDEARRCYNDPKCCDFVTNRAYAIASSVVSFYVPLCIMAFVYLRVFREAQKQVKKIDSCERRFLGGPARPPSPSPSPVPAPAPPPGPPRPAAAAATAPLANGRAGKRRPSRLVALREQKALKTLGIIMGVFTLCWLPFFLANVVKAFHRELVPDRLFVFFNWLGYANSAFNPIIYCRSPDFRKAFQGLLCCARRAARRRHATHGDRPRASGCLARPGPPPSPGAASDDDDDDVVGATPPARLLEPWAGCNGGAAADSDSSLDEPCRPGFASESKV

## O=C1NCc2cc(OCCNC[C@H](O)COc3ccc4c(c3)OC[C@@H](COCC3CC3)O4)ccc21 [NDD-825]
Human β2-AR
  Kd: 1780 nM
[1]
  Kd: 1350 nM
Human β1-AR
  CRE-SPAP production relative to isoprenaline maximum: no responses were observed
[2]
  fraction unbound at 1 h, 1 µM: 0.01
[3]
  microsomal CLint: < 0.16 µL/min/mg
[4]; hepatocytes
  hepatocyte CLint: 5 µL/min/1e6 cells
[5]; conscious rats, oral gavage 1 mg/kg (d 1), n = 3
  Effect on basal HR: small but significant lowering of basal HR
[5]; conscious rats, oral gavage 3 and 10 mg/kg on subsequent days, compared with 1 mg/kg
  Lowering of basal HR and reduction in isoprenaline-stimulated HR: more pronounced
[5]; conscious rats, oral gavage, any dose level (1, 3, 10 mg/kg)
  Changes in HQC responses to isoprenaline: No significant changes
[5]
  Effect on basal and isoprenaline-stimulated HR after oral gavage: caused a reduction of basal and isoprenaline-stimulated HR
β1-AR vs. β2-AR
  SI3 (in vivo pharmacologic response) = Eβ1/Eβ2: 81
hERG potassium channel
  Affinity for the hERG channel: no affinity for the hERG channel

## NC(=O)c1ccc(OCCNC[C@H](O)COc2ccc3c(c2)OC[C@@H](COCC2CC2)O3)cc1 [NDD-713]
Human β2-AR
  Kd: 3630 nM
[1]
  Kd: 3390 nM
Human β1-AR
  CRE-SPAP production relative to isoprenaline maximum: no responses were observed
[2]
  fraction unbound at 1 h, 1 µM: 0.15
[3]
  microsomal CLint: < 0.16 µL/min/mg
[4]
  CLint rat hepatocytes: minimal
[5]
  Effect on basal and isoprenaline-stimulated HR after oral gavage: caused a reduction of basal and isoprenaline-stimulated HR
β1-AR vs. β2-AR
  SI3 (in vivo pharmacologic response) = Eβ1/Eβ2: 67
hERG potassium channel
  Affinity for the hERG channel: no affinity for the hERG channel
